# Laboratory results published in patent publication US10363253B2, “Combination products for the treatment of RSV” (priority 2016, dated 2019).
# Read-outs that look alike come from different tables or passages of the source.
# Tested on: rgRSV224, an engineered RSV strain that encodes for eGFP
# Assay type: cell-based
# Method: To evaluate their combined antiviral effect against RSV, in vitro combination studies were performed with JNJ-53718678 (“compound A”) and various compounds with different mechanisms-of-action (“compound B”). In short, 9 concentrations of Compound A were combined with 6 or 7 concentrations of a certain compound B. HeLa cells were infected with rgRSV224, an engineered RSV strain that encodes for eGFP (Hallak L K, Spillmann D, Collins P L, Peeples M E. Glycosaminoglycan sulfation requirements for respiratory syncytial virus infection; Journal of Virology (2000), 74(22), 10508-13), in the presence of various concentrations of compound A and compound B individually or in combination.
# Compound stock solutions were 5 mM in 100% DMSO, with following exceptions: ribavirin, 20 mM; A 60444, 10 mM; CR9501, 141 μM in PBS; palivizumab, 156 μM in PBS; MDT 637, 100 μM in methanol. First, the compounds were serially diluted in 3-fold dilution series in DMSO; CR9501 and palivizumab were serially diluted in cell culture medium, and MDT 637 in methanol. The concentration series were diluted 100-fold in cell culture medium to achieve a combination matrix. 10 μL of these compound solutions were transferred to black 384-well clear-bottom tissue-culture treated plates. Next, 10 μL of a […] HeLa cell suspension was added to achieve 3000 cells per well. Finally, 10 μL of diluted virus stock was added to achieve an MOI of 1. The final DMSO concentration of all wells was 0.5% DMSO, except for the MDT 637 experiment where it was 0.25% DMSO+0.25% methanol. Each combination of compound concentrations was tested in 4 replicates on 3 separate plates, resulting in a total of 12 replicates. The plates were incubated for 3 days at 37° C. in a humidified atmosphere at 5% CO2. The GFP signal was measured with PerkinElmer EnVision apparatus using a 405 nm filter.
# The method of Harbron (Statistics in Medicine, 2010, DOI:10.1002/sim3916) was used to assess synergy. Using the Loewe definition, two compounds are characterized as being additive, synergistic or antagonistic by:
# where d1 and d2 represent the doses of the two compounds that in combination produce an effect y, and Dy,1 and Dy,2 represent the doses of the two compounds that produce the same effect, y, when administered as a monotherapy. A 3PL model (3-parameter log-logistic model) was used for the monotherapy dose-response data, where the baseline response was fixed at one.
# Following Harbron's approach, the following models were fitted to the data: • “Additive”: assuming no interaction between the two compounds • “Uniform”: assuming a constant interaction index τ across all dose combinations • “Linear A”: assuming the interaction index linearly depends on the log 10 dose of compound A: z=τ1+τ2 log 10(dA) • “Separate A”: assuming the interaction index τ takes a separate value for each dose of compound A The latter two models were also considered for compound B: • “Linear B”: assuming the interaction index linearly τ depends on the log 10 dose of compound B: τ=τ1+τ2 log 10(dB) • “Separate B”: assuming the interaction index τ takes a separate value for each dose of compound B
structure (smiles),measurement,setting,value
"CS(=O)(=O)CCCn1c(Cn2c(=O)n(CC(F)(F)F)c3ccncc32)cc2cc(Cl)ccc21 [Compound A, 3-({5-chloro-1-[3-(methylsulfonyl)propyl]-1H-indol-2-yl}methyl)-1-(2,2,2-trifluoroethyl)-1,3-dihydro-2H-imidazo[4,5-c]pyridin-2-one]",normalized GFP signal,"A = 0.19 nM, B (A-60444) = 0",0.96
same,normalized GFP signal,"A = 0.19 nM, B (AZ-27) = 0",0.98
same,normalized GFP signal,"A = 0.19 nM, B (CAS 851658-10-1) = 0",0.99
same,normalized GFP signal,"A = 0.19 nM, B (CR9501) = 0",1.05
same,normalized GFP signal,"A = 0.19 nM, B (GS-5806) = 0",0.99
same,normalized GFP signal,"A = 0.19 nM, B (MDT-637) = 0",0.98
same,normalized GFP signal,"A = 0.19 nM, B (palivizumab) = 0",1.04
same,normalized GFP signal,"A = 0.19 nM, B (pulmocide compound) = 0",0.96
same,normalized GFP signal,"A = 0.19 nM, B (ribavirin) = 0",0.97
same,normalized GFP signal,"A = 0.57 nM, B (A-60444) = 0",0.95
same,normalized GFP signal,"A = 0.57 nM, B (AZ-27) = 0",0.96
same,normalized GFP signal,"A = 0.57 nM, B (CAS 851658-10-1) = 0",0.96
same,normalized GFP signal,"A = 0.57 nM, B (CR9501) = 0",1.01
same,normalized GFP signal,"A = 0.57 nM, B (GS-5806) = 0",0.93
same,normalized GFP signal,"A = 0.57 nM, B (MDT-637) = 0",0.97
same,normalized GFP signal,"A = 0.57 nM, B (palivizumab) = 0",0.98
same,normalized GFP signal,"A = 0.57 nM, B (pulmocide compound) = 0",0.92
same,normalized GFP signal,"A = 0.57 nM, B (ribavirin) = 0",0.95
same,normalized GFP signal,"A = 1.7 nM, B (A-60444) = 0",0.83
same,normalized GFP signal,"A = 1.7 nM, B (AZ-27) = 0",0.89
same,normalized GFP signal,"A = 1.7 nM, B (CAS 851658-10-1) = 0",0.83
same,normalized GFP signal,"A = 1.7 nM, B (CR9501) = 0",0.89
same,normalized GFP signal,"A = 1.7 nM, B (GS-5806) = 0",0.83
same,normalized GFP signal,"A = 1.7 nM, B (MDT-637) = 0",0.85
same,normalized GFP signal,"A = 1.7 nM, B (palivizumab) = 0",0.86
same,normalized GFP signal,"A = 1.7 nM, B (pulmocide compound) = 0",0.78
same,normalized GFP signal,"A = 1.7 nM, B (ribavirin) = 0",0.87
same,normalized GFP signal,"A = 5.1 nM, B (A-60444) = 0",0.55
same,normalized GFP signal,"A = 5.1 nM, B (AZ-27) = 0",0.71
same,normalized GFP signal,"A = 5.1 nM, B (CAS 851658-10-1) = 0",0.50
same,normalized GFP signal,"A = 5.1 nM, B (CR9501) = 0",0.64
same,normalized GFP signal,"A = 5.1 nM, B (GS-5806) = 0",0.47
same,normalized GFP signal,"A = 5.1 nM, B (MDT-637) = 0",0.43
same,normalized GFP signal,"A = 5.1 nM, B (palivizumab) = 0",0.57
same,normalized GFP signal,"A = 5.1 nM, B (pulmocide compound) = 0",0.56
same,normalized GFP signal,"A = 5.1 nM, B (ribavirin) = 0",0.63
same,normalized GFP signal,"A = 15 nM, B (A-60444) = 0",0.38
same,normalized GFP signal,"A = 15 nM, B (AZ-27) = 0",0.45
same,normalized GFP signal,"A = 15 nM, B (CAS 851658-10-1) = 0",0.31
same,normalized GFP signal,"A = 15 nM, B (CR9501) = 0",0.41
same,normalized GFP signal,"A = 15 nM, B (GS-5806) = 0",0.30
same,normalized GFP signal,"A = 15 nM, B (MDT-637) = 0",0.26
same,normalized GFP signal,"A = 15 nM, B (palivizumab) = 0",0.38
same,normalized GFP signal,"A = 15 nM, B (pulmocide compound) = 0",0.43
same,normalized GFP signal,"A = 15 nM, B (ribavirin) = 0",0.39
same,normalized GFP signal,"A = 46 nM, B (A-60444) = 0",0.28
same,normalized GFP signal,"A = 46 nM, B (AZ-27) = 0",0.25
same,normalized GFP signal,"A = 46 nM, B (CAS 851658-10-1) = 0",0.19
same,normalized GFP signal,"A = 46 nM, B (CR9501) = 0",0.28
same,normalized GFP signal,"A = 46 nM, B (GS-5806) = 0",0.21
same,normalized GFP signal,"A = 46 nM, B (MDT-637) = 0",0.16
same,normalized GFP signal,"A = 46 nM, B (palivizumab) = 0",0.28
same,normalized GFP signal,"A = 46 nM, B (pulmocide compound) = 0",0.36
same,normalized GFP signal,"A = 46 nM, B (ribavirin) = 0",0.25
same,normalized GFP signal,"A = 139 nM, B (A-60444) = 0",0.14
same,normalized GFP signal,"A = 139 nM, B (AZ-27) = 0",0.17
same,normalized GFP signal,"A = 139 nM, B (CAS 851658-10-1) = 0",0.10
same,normalized GFP signal,"A = 139 nM, B (CR9501) = 0",0.21
same,normalized GFP signal,"A = 139 nM, B (GS-5806) = 0",0.11
same,normalized GFP signal,"A = 139 nM, B (MDT-637) = 0",0.06
same,normalized GFP signal,"A = 139 nM, B (palivizumab) = 0",0.17
same,normalized GFP signal,"A = 139 nM, B (pulmocide compound) = 0",0.20
same,normalized GFP signal,"A = 139 nM, B (ribavirin) = 0",0.15
same,normalized GFP signal,"A = 417 nM, B (A-60444) = 0",0.07
same,normalized GFP signal,"A = 417 nM, B (AZ-27) = 0",0.07
same,normalized GFP signal,"A = 417 nM, B (CAS 851658-10-1) = 0",0.06
same,normalized GFP signal,"A = 417 nM, B (CR9501) = 0",0.10
same,normalized GFP signal,"A = 417 nM, B (GS-5806) = 0",0.06
same,normalized GFP signal,"A = 417 nM, B (MDT-637) = 0",0.02
same,normalized GFP signal,"A = 417 nM, B (palivizumab) = 0",0.09
same,normalized GFP signal,"A = 417 nM, B (pulmocide compound) = 0",0.11
same,normalized GFP signal,"A = 417 nM, B (ribavirin) = 0",0.08
same,normalized GFP signal,"A = 1250 nM, B (A-60444) = 0",0.04
same,normalized GFP signal,"A = 1250 nM, B (AZ-27) = 0",0.04
same,normalized GFP signal,"A = 1250 nM, B (CAS 851658-10-1) = 0",0.04
same,normalized GFP signal,"A = 1250 nM, B (CR9501) = 0",0.06
same,normalized GFP signal,"A = 1250 nM, B (GS-5806) = 0",0.03
same,normalized GFP signal,"A = 1250 nM, B (MDT-637) = 0",−0.00
same,normalized GFP signal,"A = 1250 nM, B (palivizumab) = 0",0.05
same,normalized GFP signal,"A = 1250 nM, B (pulmocide compound) = 0",0.06
same,normalized GFP signal,"A = 1250 nM, B (ribavirin) = 0",0.04
